Literature values in patent US11628197B2, “Methods and compounds for treating effects of COVID-19 disease” (priority 2020, dated 2023).

Assays:
COVID-19 disease = conditions: US Veterans Administration hospitals, France, China and Brazil
COVID-19 = conditions: study of 243 subjects

Molecule	Therapeutic effects after clinical testing (COVID-19 disease)	Efficacy for preventing intubation or death (COVID-19)
CCN(CC)CCCC(C)Nc1ccnc2cc(Cl)ccc12 (stereo not drawn) [chloroquine]	failed to produce desired therapeutic effects	
CCN(CCO)CCCC(C)Nc1ccnc2cc(Cl)ccc12 (stereo not drawn) [hydroxycholoroquine]	failed to produce desired therapeutic effects	
Tocilizumab: humanized monoclonal antibody targeting IL-6 receptors		failed to show efficacy
